Data on three compounds can be found in patent publication US5885988A, “Benzo[g]quinoline derivatives” (Novartis AG, priority 1995, dated 1999).

Test [1] has as its target T1, recombinant human sst1 receptors (Homo sapiens, UniProt P30872).
T1 construct: expressed in transfected cells
Nature of the test: radioligand binding, recombinant human sst1 receptors. As to conditions: read-out: affinity for recombinant human sst1 receptors, pIC50 (converted). The text has this: (§1) In particular the agents of the invention bind to somatostatin receptors.
(§2) For all the above indications the preferred compound is [3R,4aR,10aR]-1,2,3,4,4a,5,10, 10a-octahydro-6-methoxy-1 -methyl-benzo[g]quinoline-3-carboxylic acid 4-(4-nitro-phenyl)-piperazine amide, which is the compound of example 1.

In test [2] the target is rat sst1 receptors (Rattus norvegicus, UniProt P28646). Nature of the test: radioligand binding, rat sst1 receptors. As to conditions: read-out: affinity for rat sst1 receptors, pIC50 (converted).
Chain of rat sst1 receptors (P28646 whole entry): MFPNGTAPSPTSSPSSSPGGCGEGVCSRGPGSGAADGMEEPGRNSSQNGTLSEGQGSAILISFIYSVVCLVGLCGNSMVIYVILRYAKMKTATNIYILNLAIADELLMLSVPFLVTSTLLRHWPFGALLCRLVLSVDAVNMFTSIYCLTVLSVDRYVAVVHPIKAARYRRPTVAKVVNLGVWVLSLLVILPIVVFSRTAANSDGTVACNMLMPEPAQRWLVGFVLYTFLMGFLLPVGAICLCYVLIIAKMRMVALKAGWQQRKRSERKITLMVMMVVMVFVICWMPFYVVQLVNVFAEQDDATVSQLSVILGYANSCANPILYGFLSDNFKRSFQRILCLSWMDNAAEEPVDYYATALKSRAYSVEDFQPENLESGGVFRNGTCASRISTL
Description: as §1, §2

Test [3] can be described thus: Matched Pairs Situation test. It counts as in vivo, mice. To be noted: for potency compared with the compound of example 1: Matched Pairs Situation test and intruder mouse test, 3-30 mg/kg s.c. versus 1-10 mg/kg s.c.
Description: Furthermore at said doses the compounds of the invention reduce aggressive behavior (attacks, chases, bites) in the Matched Pairs Situation test in mice [Dixon et al., J. Clin. Psychiatry 55: (9) [Suppl. B] 4-7 (1994)]. […] They are therefore indicated for the treatment of affective disorders including bipolar disorders e.g. manic-depressive psychoses, extreme psychotic states e.g. mania, schizophrenia, and excessive mood swings where behavioral stabilization is desired. In addition, the compounds are indicated in anxiety states, generalized anxiety as well as social and agoraphobia, as well as those behavioural states characterized by social withdrawal e.g. negative symptoms.
as §2

The subject of test [4] is neurotransmitter receptors. Nature of the test: activity at a wide range of neurotransmitter receptors. Type of test: binding.
Description: as §2

Test [5] is described as follows: intruder mouse test. As to conditions: for social withdrawal in the intruder mouse test, standard anti-manic drugs: 3-30 mg/kg s.c. Type of test: in vivo.
Description: as §2

T1 sequence (P30872 whole entry): as the sequence (P28646 whole entry) above, with P8S, T11S, S16P, G20S, V25G, C26G, S32A, S45A, A385T, S389T counted along it

For `COc1cccc2c1C[C@H]1C[C@@H](C(=O)N3CCN(c4ccc([N+](=O)[O-])cc4)CC3)CN(C)[C@@H]1C2` [Example 1, [3R,4aR,10aR]-1,2,3,4,4a ,5,10,10a-octahydro-6-methoxy-1-methyl-benzo[g]quinoline-3-carboxylic acid 4-(4-nitro-phenyl)-piperazine amide], the IC50 in test [1] was 20 nM; in test [2], 0.794 nM. Besides, the “aggressive behavior in the Matched Pairs Situation test” value in test [3] (1-10 mg/kg s.c.) is “clearly lowers aggressive behavior”. Further, the “activity for a wide range of neurotransmitter receptors” value in test [4] is “without significant activity”. For the same compound, in test [5] (1-10 mg/kg s.c.), the “social withdrawal in the intruder mouse test” value is reported as “reverses social withdrawal”.
`[Li]` [lithium]: in test [3], the “potency compared with the compound of example 1” value was “less potent”. Moreover, the “social withdrawal in the intruder mouse test, standard anti-manic drugs” value in test [5] is on record as “These effects are also observed”.
For `NC(=O)N1c2ccccc2C=Cc2ccccc21` [carbamazepine] the same measures were “less potent” and “These effects are also observed”.
